PMC3258025 (Molecular Cancer Therapeutics, 2010)

Assays:
OCT3 = molecular target: T1, OCT3 (Homo sapiens, UniProt O75751); details: corticosterone 10 μmol/L, P < 0.001
T1 sequence (O75751 1-556): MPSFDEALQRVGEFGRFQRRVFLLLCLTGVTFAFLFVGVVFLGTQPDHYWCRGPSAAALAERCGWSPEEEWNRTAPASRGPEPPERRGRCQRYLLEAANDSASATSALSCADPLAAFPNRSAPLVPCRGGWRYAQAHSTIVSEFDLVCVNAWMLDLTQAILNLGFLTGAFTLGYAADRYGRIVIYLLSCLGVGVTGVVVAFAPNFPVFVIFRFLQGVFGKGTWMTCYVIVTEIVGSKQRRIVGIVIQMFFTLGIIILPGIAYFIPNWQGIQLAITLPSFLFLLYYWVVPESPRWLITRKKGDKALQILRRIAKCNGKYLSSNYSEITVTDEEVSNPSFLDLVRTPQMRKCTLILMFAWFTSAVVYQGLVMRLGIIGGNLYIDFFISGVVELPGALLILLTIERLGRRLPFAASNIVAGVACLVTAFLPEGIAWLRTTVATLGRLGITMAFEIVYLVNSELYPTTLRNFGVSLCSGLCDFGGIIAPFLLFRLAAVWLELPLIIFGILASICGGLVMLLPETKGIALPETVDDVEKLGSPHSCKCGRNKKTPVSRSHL

OCT1 [1] = molecular target: T2, OCT1 (Homo sapiens, UniProt O15245); details: 10 μmol/L, 30 minutes; picoplatin in PB-Cl, monoaqua and diaqua complexes in PB-SO4
T2 sequence (O15245 1-554): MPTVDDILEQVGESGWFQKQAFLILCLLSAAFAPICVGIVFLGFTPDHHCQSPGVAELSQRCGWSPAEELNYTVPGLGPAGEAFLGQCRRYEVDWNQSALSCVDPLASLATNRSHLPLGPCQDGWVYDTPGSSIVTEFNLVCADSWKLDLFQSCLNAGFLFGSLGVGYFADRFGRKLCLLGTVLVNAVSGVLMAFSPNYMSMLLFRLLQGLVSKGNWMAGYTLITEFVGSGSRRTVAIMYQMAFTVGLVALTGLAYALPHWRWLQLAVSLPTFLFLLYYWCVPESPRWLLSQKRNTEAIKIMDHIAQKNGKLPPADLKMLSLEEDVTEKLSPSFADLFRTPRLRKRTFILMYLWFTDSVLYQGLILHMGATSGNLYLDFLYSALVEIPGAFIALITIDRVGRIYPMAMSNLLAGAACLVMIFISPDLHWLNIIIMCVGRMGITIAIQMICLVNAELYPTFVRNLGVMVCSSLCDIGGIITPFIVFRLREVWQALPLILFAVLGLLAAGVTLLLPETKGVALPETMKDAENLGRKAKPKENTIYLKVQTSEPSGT

[2] = test system: lung cancer cell lines (A549, H460, H838, and H1703); assay: MTT cytotoxicity, summary over the four lung cancer cell lines; assay type: cell-based, human; details: cimetidine 3 mmol/L, 4-hour exposure
HEK293 cells = assay: MTT cytotoxicity of the OCT inhibitors themselves; assay type: cell-based, human; details: same experimental conditions as picoplatin MTT assay; data not shown
HEK-hOCT1 cells = assay: MTT cytotoxicity assay in OCT1-transfected HEK293 cells; assay type: cell-based, human; details: disopyramide 150 μmol/L
OCT1 [3] = molecular target: T2, OCT1; assay: Platinum-DNA adduct formation in HEK-hOCT1 cells; assay type: cell-based; details: disopyramide 150 μmol/L, P < 0.001

| SMILES | Change in IC50 values in the presence of cimetidine [2] | Concentration up to which the inhibitor itself did not exhibit any cytotoxicity (HEK293 cells) [µM] | other results |
| --- | --- | --- | --- |
| C[C@]12C[C@H](O)[C@H]3[C@@H](CCC4=CC(=O)CC[C@@]43C)[C@@H]1CC[C@@H]2C(=O)CO [corticosterone] | – | – | Effect of OCT3 inhibitor on picoplatin-DNA adduct level in HEK-hOCT3 cells (OCT3): completely inhibited |
| Cc1cccc[n+]1[Pt-2]([NH3+])([OH2+])[Cl] (centres unmarked) [monoaqua complex of picoplatin, [Pt(NH3)(2-Pic)(H2O)(Cl)]+] | – | – | Preference of platinum uptake in OCT1-expressing cells over the corresponding EV cells (OCT1 [1]): equal additional preference in OCT1-expressing cells |
| N.N.[Cl][Pt][Cl] [Cisplatin] | no significant change in the IC50 values | – | – |
| CN/C(=N/CCSCc1nc[nH]c1C)NC#N [cimetidine] | – | > 5000 | – |
| CC(C)N(CCC(C(N)=O)(c1ccccc1)c1ccccn1)C(C)C (centres unmarked) [disopyramide] | – | > 400 | Increase of picoplatin IC50 by coincubation of OCT1 inhibitor (HEK-hOCT1 cells): 5.9 fold; Effect of OCT1 inhibitor on platinum-DNA adduct formation in HEK-hOCT1 cells (OCT1 [3]): inhibitable |
| N.N.O=C([O-])C1(C(=O)[O-])CCC1.[Pt+2] [Carboplatin] | no significant change in the IC50 values | – | – |
